We go through one compound from article PMC3134853, “In Vitro and In Vivo Study of Poly(ethylene glycol) Conjugated Ibuprofen to Extend the Duration of Action” (Scientia Pharmaceutica, 2011).

The structures appear in SMILES notation. Values after ≈ are worked out from the molar mass of the structure shown. Read-outs that look alike come from different tables or passages of the source.

A short description of data set [1]: Determination of drug solubility (distilled water and phosphate buffer pH 7.4). It is filed as physicochemical. Particulars: UV 222 nm. As for the experimental part: This suspension was stirred at room temperature for 24 hours with a Rota spin test tube Roter. After that the containers (test tubes) were left overnight for saturation. Then these saturated solutions were centrifuged at 10000 rpm the help of macro centrifuge and the supernatant was filtered via Whatman filter paper. The concentration of Ibuprofen was determined spectrophotometrically at 222 nm.

Data set [2] deals with acetic acid induced writhing in mice. The experiment in a line: Writhing induced by acetic acid (analgesic activity). Type of data set: in vivo, Swiss albino mice. Particulars: oral, 3 h prior to acetic acid, Ibuprofen 20 mg/kg or molecular equivalent dose of conjugate.
Description: Analgesic activity was carried out by using acetic acid induced writhing method in Swiss albino mice (25–30 g) of either sex. A 1% v/v solution of acetic acid was used to induce writhing. Test compounds were administered orally 3 h prior to acetic acid injection. Number of writhing for 10 min in control and test compounds were counted and compared. […] Acetic acid was administered intraperitoneally 1 ml/100 g body weight of the animal. Analgesic activity was measured as percent decrease in writhing in comparison to control. The percent Inhibition was calculated using the following equation: % Inhibition = 100 − number of writhings in test/number of writhings in control×100
Analgesic activity was carried out by using acetic acid induced writhing method in Swiss albino mice (25–30 g) of either sex. A 1% v/v solution of acetic acid was used to induce writhing. Test compounds were administered orally 3 h prior to acetic acid injection.
Data set [3] has as its system carrageenan-induced paw edema in rats. The data set is described as follows: Carrageenan-induced paw edema (anti-inflammatory activity). It is filed as in vivo. Particulars: Wistar rats, oral, mean ± SEM. Here is the method: All the animals were obtained from the animal house of the Department of Pharmacology, […] College of Pharmacy, Mandsaur and its animal facility is approved by […]. No. 918/ac/05/CPCSEA). The experimental protocols for the same have been approved by Institutional Animal Ethics Committee. The analgesic activity was carried out on Swiss albino mice by the Siegmund et al. method; anti-inflammatory activity of the compounds was carried out on Wistar rats by the Winter et al. method. The anti-inflammatory activity was evaluated using carrageenan-induced paw edema on rat method. To evaluate the anti-inflammatory activity of the conjugates 4 groups (n = 6) of Wistar rats (150-200 g) were examined. […] A stock solution of 0.2, 0.52 and 2.14 mg ml^-1 was prepared as a homogeneous suspension in aqueous solution of sodium CMC (0.5% w/v) and each animal received 2.0- 2.2 ml of the respective drugs orally. Thirty minutes after administration of drugs, each rat received a subplanter injection of 0.1 ml of 1% carrageenan solution in its left hind paw. The swelling volume of the paw was measured before (time 0) and at 0.5, 1, 2, 3, 4, 24 h after the carrageenan injection. The measurement of the hind paw volume was carried out using an Ugo Basile Plethysmometer before any treatment (Vo) and in any interval (Vt) after the administration of the drugs. The percentage increase in the paw volume was calculated from the normal paw volume. The percentage of swelling inhibition was calculated using: Inhibition (%) = (Vt - Vo)control - (Vt - Vo)treated/(Vt - Vo)×100 (Vt and Vo relates to the average volume in the hind paw of the rats (n = 6) before any treatment and after anti-inflammatory agent treatment, respectively.

For data set [4] the following is noted: cited from earlier work.
The conditions of data set [5]: oral administration; cited from earlier work.

Consider `CC(C)Cc1ccc(C(C)C(=O)O)cc1` (centres unmarked) [Ibuprofen, 2-(4-iso-butylphenyl)-propanoic acid], for which the solubility at 24 h was 10.6 µg/mL (≈ 51.2 µM) in data set [1] (distilled water, room temperature, read-out: Solubility in distilled water) and 25.2 µg/mL (≈ 122 µM) in data set [1] (phosphate buffer pH 7.4, room temperature, read-out: Solubility in phosphate buffer (pH 7.4)). The “Percent inhibition (decrease) in writhing number versus control” value in data set [2] stood at 59.61%. Besides, the Paw edema volume in data set [3] (1 hr, the values are: paw edema volume) is 0.33 ± 0.013 mL; in data set [3] (2 hr, the values are: paw edema volume) it was 0.48 ± 0.017 mL; in data set [3] (3 hr, the values are: paw edema volume), 0.38 ± 0.013 mL; in data set [3] (4 hr, the values are: paw edema volume), 0.24 ± 0.009 mL; in data set [3] (8 hr, the values are: paw edema volume), 0.15 ± 0.01 mL; in data set [3] (24 hr) it was 0.03 ± 0.013^ns. The “Solubility in water (in words)” value in data set [4] is “poorly soluble in water”. The “Time to reach maximal plasma concentration” value in data set [5] is at most 2 h.
